From PMC6684055 (Toxicology letters, 2019)
“And” between values parts separate entries of the source, which are not always exact repeats. Identical values can stand only once. “Also recorded” adds a separate entry of the source.

Tests used:
CYP1A1 and CYP1A2 = test: Expression of CYP1A1 and CYP1A2 mRNAs; format: cell-based, human; conditions: three donors, 24 h, MMI 200 μM, TCDD 5 nM
[1] = Residual MMI in culture media after incubation with primary human hepatocytes; format: in vitro ADME; conditions: 24 h incubation with human hepatocytes, initial 200 μM
CYP1A genes = test: Induction of CYP1A genes; conditions: 5 F-HepaRG cells, 24 h, MMI 200 μM; for efficacy of CYP1A genes induction relative to TCDD (100%): TCDD 5 nM
CYP1A1 [2] = test: Induction of CYP1A1 catalytic activity in primary human hepatocytes; format: cell-based; conditions: 24 h; for induction of CYP1A1 activity, concentration-response profile (in words): then luciferin-CEE 3 h
CYP1A1 [3] = test: Induction of CYP1A1 catalytic activity in LS180 cells; format: cell-based, human; conditions: 24 h, inverse U-shape profile
human AhR = conditions: cited from earlier work
CYP1A1 [4] = test: Single concentration inactivation assay; format: biochemical; conditions: human, human liver microsomes, probe Luciferin-CEE
AhR = target: T1, AhR (Homo sapiens, UniProt P35869); format: cell-based; conditions: AZ-AHR cells, without incubation with hepatocytes
T1 sequence (P35869 11-848): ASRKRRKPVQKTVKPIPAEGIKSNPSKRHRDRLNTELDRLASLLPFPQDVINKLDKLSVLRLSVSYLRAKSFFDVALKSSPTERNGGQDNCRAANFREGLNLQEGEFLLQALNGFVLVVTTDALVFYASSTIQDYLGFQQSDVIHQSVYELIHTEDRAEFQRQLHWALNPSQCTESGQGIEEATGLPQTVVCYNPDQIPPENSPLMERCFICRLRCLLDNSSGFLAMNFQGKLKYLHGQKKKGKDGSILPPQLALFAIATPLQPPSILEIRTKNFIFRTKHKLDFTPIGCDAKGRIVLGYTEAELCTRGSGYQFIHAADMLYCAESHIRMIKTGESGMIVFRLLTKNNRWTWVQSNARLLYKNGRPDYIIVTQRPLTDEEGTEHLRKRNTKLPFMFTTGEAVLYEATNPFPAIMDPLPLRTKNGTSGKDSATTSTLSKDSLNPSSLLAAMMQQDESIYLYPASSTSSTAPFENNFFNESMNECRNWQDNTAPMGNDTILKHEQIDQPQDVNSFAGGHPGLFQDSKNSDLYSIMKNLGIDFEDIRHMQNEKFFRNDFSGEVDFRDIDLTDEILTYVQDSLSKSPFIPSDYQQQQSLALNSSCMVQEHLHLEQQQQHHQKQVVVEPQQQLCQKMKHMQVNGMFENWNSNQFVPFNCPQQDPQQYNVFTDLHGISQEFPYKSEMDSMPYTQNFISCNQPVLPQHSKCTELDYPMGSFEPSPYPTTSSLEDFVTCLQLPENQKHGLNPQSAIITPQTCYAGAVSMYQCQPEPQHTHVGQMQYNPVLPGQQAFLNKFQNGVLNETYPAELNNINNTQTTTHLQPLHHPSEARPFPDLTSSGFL

CYP1A1 [5] = conditions: ref Stepankova et al., 2018; cited from earlier work
CYP1A2 mRNA = CYP1A2 mRNA expression; format: cell-based, human; conditions: 5 F-HepaRG cells, 24 h, TCDD 5 nM, two consecutive passages
[6] = human hepatocytes, MMI 0.1-200 μM

Row | induction of CYP1A1 and CYP1A2 mRNAs and proteins in primary human hepatocytes (in words) (CYP1A1 and CYP1A2) | efficacy of CYP1A genes induction relative to TCDD (100%) (CYP1A genes) | induction of CYP1A1 activity, concentration-response profile (in words) (CYP1A1 [2]; [6]) | concentration at peak of CYP1A1 induction (CYP1A1 [3]) [µM] | Compound | also measured
1 | Modest induction | 15% | – | – | Cn1ccc2ccccc21 [1-methylindole] | residual MMI in culture media (in words) [1]: no residual MMI was detected
2 | no effect | – | No induction | 25 | Cc1cc2ccccc2[nH]1 [2-methylindole] | activity at AhR (in words) (human AhR; ref Stepankova et al., 2018): nearly inactive; CYP1A induction in HepaRG cells (in words) (CYP1A genes): nearly inactive
3 | Modest induction | – | No induction | – | Cc1c[nH]c2ccccc12 [3-methylindole] | activity at human AhR (in words) (human AhR; ref Rasmussen et al., 2016): partial agonist
4 | – | ~100% | Inverse U-shaped | 25 | Cc1cccc2[nH]ccc12 [4-methylindole] | inhibition at 30 min, 200 μM (CYP1A1 [4]): 10%; efficacy as AhR agonist compared to 3-methylindole (skatole) (human AhR; ref Stepankova et al., 2018): approx. 25 times
5 | – | ~ 20% | Inverse U-shaped | – | Cc1ccc2[nH]ccc2c1 [5-methylindole] | inhibition at 30 min, 200 μM (CYP1A1 [4]): 47%
6 | – | – | Inverse U-shaped | 25 | Cc1ccc2cc[nH]c2c1 [6-methylindole] | efficacy as AhR agonist compared to 3-methylindole (skatole) (human AhR; ref Stepankova et al., 2018): approx. 25 times

Row | Compound | induction of CYP1A1 and CYP1A2 mRNAs and proteins in primary human hepatocytes (in words) (CYP1A1 and CYP1A2) | efficacy of CYP1A genes induction relative to TCDD (100%) (CYP1A genes) | induction of CYP1A1 activity, concentration-response profile (in words) (CYP1A1 [2]; [6]) | concentration at peak of CYP1A1 induction (CYP1A1 [3]) [µM] | also measured
7 | Cc1cccc2cc[nH]c12 [7-methylindole] | strong inducer; also recorded: very strong inducer | ~ 20% | Concentration-dependent induction | – | relative efficacy of CYP1A1 activity induction as compared to TCDD (CYP1A1 [2]; [6]): ~ 2%; AhR agonist activity of parental compound (in words) (AhR): weak agonist of AhR; CYP1A induction in LS180 intestinal cells (in words) (CYP1A1 [5]): modest CYP1A inducer; also recorded: weak inducer; CYP1A induction in HepaRG cells (in words) (CYP1A genes): modest CYP1A inducer
8 | Clc1cc2c(cc1Cl)Oc1cc(Cl)c(Cl)cc1O2 [TCDD, 2,3,7,8-tetrachlorodibenzo-p-dioxin, reference compound] | strongly induced | – | – | – | induction of CYP1A2 mRNA (CYP1A2 mRNA): 34 fold and 50 fold; induction of CYP1A1 enzyme activity (CYP1A1 [2]; human hepatocytes culture Hep200571, TCDD 5 nM): 11 fold; induction of CYP1A1 enzyme activity (CYP1A1 [2]; human hepatocytes culture Hep220993, TCDD 5 nM): 153 fold
